Measurements: patent US4971967A, “Quinolinecarboxylic acid derivatives, antibacterial compositions and use” (Kanebo Ltd, priority 1989, dated 1990)
In brackets after ≈: the same amount, converted by molar mass.

How the values were obtained:
[1] = test system: Staphylococcus epidermidis IAM-1296; assay: Antibacterial activity (MIC), S. epidermidis IAM-1296; type: cell-based; details: Staphylococcus epidermidis, IAM1296, Staphylococcus epidermidis IAM-1296, Gram +; read-out: Minimum inhibitory concentration (MIC)
In short: (§1)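 Test compounds were dissolved at 5000 μg/ml in 0.1 N aqueous NaOH or in sterile distilled water, then diluted with sterile water to a 1000 μg/ml standard solution. MICs were determined by the Japan Society of Chemotherapy standard method.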

[2] = test system: Bacillus subtilis ATCC 6633; assay: Antibacterial activity (MIC), Bacillus subtilis ATCC 6633; type: cell-based
In short: as §1

[3] = test system: Micrococcus luteus ATCC 9341; assay: Antibacterial activity (MIC), Micrococcus luteus ATCC 9341; type: cell-based; details: ATCC9341; Micrococcus luteus ATCC 9341, Gram +; read-out: Minimum inhibitory concentration (MIC)
In short: as §1

[4] = test system: Klebsiella pneumoniae PCI-602; assay: Antibacterial activity (MIC), Klebsiella pneumoniae PCI-602; type: cell-based; details: PCI602; Klebsiella pneumoniae PCI-602, Gram -; read-out: Minimum inhibitory concentration (MIC)
In short: as §1

[5] = test system: Shigella sonnei EW-33; assay: Antibacterial activity (MIC), Shigella sonnei EW-33; type: cell-based; details: Shigella sonnei, EW33, Shigella sonnei EW-33, Gram -; read-out: Minimum inhibitory concentration (MIC)
In short: as §1

[6] = test system: Serratia marcescens IAM 1184; assay: Antibacterial activity (MIC), Serratia marcescens IAM 1184; type: cell-based; details: Serratia marcescens, IAM1184, Serratia marcescens IAM 1184, Gram -; read-out: Minimum inhibitory concentration (MIC)
In short: as §1

[7] = test system: Pseudomonas aeruginosa IFO 3445; assay: Antibacterial activity (MIC), P. aeruginosa IFO 3445; type: cell-based; details: Pseudomonas aeruginosa, IFO3445, Pseudomonas aeruginosa IFO 3445, Gram -; read-out: Minimum inhibitory concentration (MIC)
In short: as §1

[8] = test system: Pseudomonas aeruginosa E-2; assay: Antibacterial activity (MIC), P. aeruginosa E-2; type: cell-based; details: E2; Pseudomonas aeruginosa E-2, Gram -; read-out: Minimum inhibitory concentration (MIC)
In short: as §1

[9] = test system: Morganella morganii IFO 3848; assay: Antibacterial activity (MIC), Morganella morganii IFO 3848; type: cell-based; details: Morganella morganii, IFO3848, Morganella morganii IFO 3848, Gram -; read-out: Minimum inhibitory concentration (MIC)
In short: as §1

[10] = test system: Proteus vulgaris OX-19; assay: Antibacterial activity (MIC), Proteus vulgaris OX-19; type: cell-based; details: OX19; Proteus vulgaris OX-19, Gram -; read-out: Minimum inhibitory concentration (MIC)
In short: as §1

[11] = test system: Proteus mirabilis IFO 3849; assay: Antibacterial activity (MIC), Proteus mirabilis IFO 3849; type: cell-based; details: IFO3849; Proteus mirabilis IFO 3849, Gram -; read-out: Minimum inhibitory concentration (MIC)
In short: as §1

[12] = test system: Enterobacter aerogenes ATCC 13048; assay: Antibacterial activity (MIC), Enterobacter aerogenes ATCC 13048; type: cell-based; details: Klebsiella aerogenes, ATCC13048; Enterobacter aerogenes ATCC 13048, Gram -; read-out: Minimum inhibitory concentration (MIC)
In short: as §1

[13] = test system: Enterobacter cloacae 963; assay: Antibacterial activity (MIC), Enterobacter cloacae 963; type: cell-based; details: Enterobacter cloacae, 963, Enterobacter cloacae 963, Gram -; read-out: Minimum inhibitory concentration (MIC)
In short: as §1

[14] = test system: clinically isolated methicillin resistant Staphylococcus aureus; assay: MIC against clinically isolated methicillin resistant Staphylococcus aureus; type: cell-based; details: 54 strains; for MIC50: minimum concentration for inhibiting growth of the strains by 50%; for MIC90: minimum concentration for inhibiting growth of the strains by 90%
Method: The compounds (A) and (J) of the present invention and the known compound (X) were dissolved in 0.1 N aqueous sodium hydroxide, and the known compound (Y) in sterilized distilled water, to prepare a solution of 5000 μg/ml in concentration each. The above solutions were then diluted with sterilized distilled water to prepare a standard solution with a concentration of the test compound: 1000 μg/ml each. The test was carried out by a method appointed by Japan Society of Chemotherapy (ibidem) to measure minimum inhibitory concentration (MIC) against 54 strains of clinically isolated methicillin resistant Staphylococcus aureus, from which there were calculated a range of MIC (MICrange) of the test compound against these resistant strains, a minimum concentration for inhibiting the growth of the strains by 50% (MIC50) and a minimum concentration for inhibiting the growth of the strains by 90% (MIC90).

[15] = test system: Pseudomonas aeruginosa E-2; assay: Effect on treatment of general infectious disease, P. aeruginosa E-2 (Experiment 3); type: in vivo, ddY male mice infected with Pseudomonas aeruginosa; details: E2, 168 h, oral, 1 h after i.p. infection, 3.1×10^4 CFU/mouse, survival after one week
Method: Pseudomonas aeruginosa E-2 (3.1×10^4 CFU/mouse)
(§2) The test microorganisms were subjected to standing culture in Trypto-Soya Agar "Nissui" (made by Nissui Seiyaku K.K., Japan) at 37° C. for 16 to 18 hours. The culture was then diluted with PBS (Dulbecco's phosphate buffered saline) and mixed with an equivalent amount of 10% (w/v) Mucin (BACTO MUCIN BACTERIOLOGICAL, made by Difco Co.) to prepare a microorganism solution. The thus prepared microorganism solution (0.5 ml each) was intraperitoneally inoculated to ddY male mice (5 weeks age, weighing 25-28 g, 5 mice in each group), to infect the animals. One hour after the infection, the compound (A) or (J) of the present invention or the known compound (X) suspended in 1% (w/v) aqueous gum arabic or the known compound (Y) dissolved in sterilized distilled water was orally adiministered to mice.
(§3) The mice were daily observed for one week, and from the survival number of mice after one week, the 50% effective dose (ED50) was calculated by Weil method.

[16] = Acute toxicity (Experiment 5); details: mouse, in vivo, po, 2000 mg/kg
Method: (§4) The compound (A) or (J) of the present invention was suspended in 1% (w/v) aqueous gum arabic to prepare a suspension in concentration of 100 mg/ml. The suspension was orally administered to ddY male mice (5 weeks age, weighing 20 to 25 g, 5 mice in each group), which had been fasted for 18 hours, at a rate of 2000 mg/kg body weight of the compound (A) or (J).

[17] = test system: infection; assay: Protective effects against infection (Experiments 3 and 4); type: in vivo, ddY male mice; details: result in words
Method: as §2, §3
The procedure of Experiment 3 was repeated except that ddY male mice weighing 24 to 28 g were employed.

[18] = Low toxicity (Experiments 5 and 6); type: in vivo, ddY male mice; details: result in words
Method: as §4
The compound (O) or (P) of the present invention was suspended in sterilized distilled water to prepare a suspension. The suspension was orally adminstered to ddY male mice (5 weeks age, weighing 20 to 25 g, 5 mice in each group), which had been fasted for 18 hours.

Compound | MIC [1] [µg/mL] | MIC [3] [µg/mL] | MIC [4] [µg/mL] | MIC [5] [µg/mL] | MIC [6] [µg/mL] | MIC [7] [µg/mL] | MIC [8] [µg/mL] | MIC [9] [µg/mL] | MIC [10] [µg/mL] | MIC [11] [µg/mL] | MIC [12] [µg/mL] | MIC [13] [µg/mL] | MIC [14] [µg/mL] | MIC50 [14] [µg/mL] | MIC90 [14] [µg/mL] | ED50 [15] [mg/kg] | death of mice [16] | protective effects against infection [17] | toxicity [18] | also measured
CN1CCN(c2c(F)cc3c(=O)c(C(=O)O)c4scc5n4c3c2N(C)C5)CC1 [Compound (A), 9,1-(Methylimino)methano-7-fluoro-8-(4-methyl-1-piperazinyl)-5-oxo-5H-thiazolo[3,2-a]quinoline-4-carboxylic acid] | 0.05 (≈ 0.124 µM) | 0.39 (≈ 0.969 µM) | 0.006 (≈ 0.0149 µM) | 0.025 (≈ 0.0621 µM) | 0.2 (≈ 0.497 µM) | 0.39 (≈ 0.969 µM) | 0.78 (≈ 1.94 µM) | 0.05 (≈ 0.124 µM) | 0.0125 (≈ 0.0311 µM) | 0.2 (≈ 0.497 µM) | 0.05 (≈ 0.124 µM) | 0.05 (≈ 0.124 µM) | 0.025 to 0.1 (≈ 0.0621 to 0.248 µM) | 0.05 (≈ 0.124 µM) | 0.1 (≈ 0.248 µM) | 10.2 | no death of mice was observed | excellent protective effects against infection | low toxicity | Minimum inhibitory concentration (MIC) ([2]; Bacillus subtilis ATCC 6633, Gram +): 0.006 µg/mL
CCN1CCN(c2c(F)cc3c(=O)c(C(=O)O)c4scc5n4c3c2N(C)C5)CC1 [Compound (J), 9,1-(Methylimino)methano-7-fluoro-8-(4-ethyl-1-piperazinyl)-5-oxo-5H-thiazolo[3,2-a]quinoline-4-carboxylic acid] | 0.1 (≈ 0.24 µM) | 0.39 (≈ 0.936 µM) | 0.006 (≈ 0.0144 µM) | 0.05 (≈ 0.12 µM) | 0.39 (≈ 0.936 µM) | 0.78 (≈ 1.87 µM) | 0.78 (≈ 1.87 µM) | 0.1 (≈ 0.24 µM) | 0.025 (≈ 0.06 µM) | 0.39 (≈ 0.936 µM) | 0.1 (≈ 0.24 µM) | 0.1 (≈ 0.24 µM) | 0.025 to 0.1 (≈ 0.06 to 0.24 µM) | 0.05 (≈ 0.12 µM) | 0.1 (≈ 0.24 µM) | 6.8 | no death of mice was observed | excellent protective effects against infection | low toxicity | MIC ([2]; Bacillus subtilis, ATCC6633, Bacillus subtilis ATCC 6633, Gram +, read-out: Minimum inhibitory concentration (MIC)): 0.025 µg/mL (≈ 0.06 µM)
